Here are results for 25 compounds from US8614206B2 (Genentech, Inc., priority 2011, dated 2013).

Read-outs that look alike come from different tables or passages of the source.

Test [1] concerns MM1.S (multiple myeloma) cells. The test can be described thus: In vitro cell proliferation, MM1.S multiple myeloma cells (CellTiter-Glo, ATP). The test is classed as cell-based. The note with it: read-out: Prolif MM1S ATP (EC50). How it is done:
BaF3, a murine interleukin-3 dependent pro-B cell line, parental cells, BaF3 PIM1 cells, BaF3 PIM2 cells, and MM1.S (multiple myeloma) cells were seeded at 2 k/well, 5 k/well, 5 k/well, and 10 k/well respectively, in a 384-well plate, at 45 μL/well. Test compound was added at 5 μL/well. BaF3 cells (parental and transfected) were incubated overnight, while MM1.S cells were incubated for 72 hours at 37° C., 5% CO2. […] IC50/EC50 values for the test compound were calculated.

A further test concerns BaF3 parental cells. The test can be described thus: In vitro cell proliferation, BaF3 parental line + IL3 (CellTiter-Glo). The test is classed as cell-based, murine. (In general: In ATP-based viability assays light output follows the ATP content of the culture.)
In another test the target is PIM1 (Homo sapiens (Human), UniProt P11309). The test can be described thus: Pim kinase inhibition, PIM1 LC3K (Example 901). The test is classed as biochemical.
The mark [2] stands for this setting: BaF3 parental cells with IL-3, incubated overnight, read-out: Prolif BaF3 + IL3 (IC50).
[3] abbreviates: Mus musculus, BaF3, BaF3 parental cells with IL-3, incubated overnight, read-out: Prolif BaF3 + IL3 (IC50).
Setting [4] is: Mus musculus, BaF3, BaF3 parental cells with IL-3, incubated overnight, read-out: Prolif BaF3 IL3 (IC50).

Sequence of PIM1 (P11309 whole entry): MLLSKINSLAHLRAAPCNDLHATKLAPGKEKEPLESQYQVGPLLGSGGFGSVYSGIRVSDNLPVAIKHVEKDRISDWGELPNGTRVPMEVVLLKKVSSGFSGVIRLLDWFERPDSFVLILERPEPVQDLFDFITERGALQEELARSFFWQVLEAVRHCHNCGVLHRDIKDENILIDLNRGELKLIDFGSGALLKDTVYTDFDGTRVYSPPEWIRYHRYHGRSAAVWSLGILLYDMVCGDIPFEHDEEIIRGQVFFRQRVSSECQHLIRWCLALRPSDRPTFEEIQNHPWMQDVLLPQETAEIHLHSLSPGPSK
Experimental for BaF3 parental cells: BaF3 parental line was obtained from the DSMZ repository. BaF3 lines transfected with PIM 1 or PIM2 were generated. Mouse IL-3 was purchased from R&D Systems. G418 was purchased from Clontech. Media for BaF3 parental line contained RPMI, 10% FBS, 2 mM L-Glutamine, 2 ng/mL mIL-3. Media for BaF3 PIM1 & 2 lines contained RPMI, 10% FBS, 2 mM L-Glutamine, 250 μg/mL.
BaF3, a murine interleukin-3 dependent pro-B cell line, parental cells, BaF3 PIM1 cells, BaF3 PIM2 cells, and MM1.S (multiple myeloma) cells were seeded at 2 k/well, 5 k/well, 5 k/well, and 10 k/well respectively, in a 384-well plate, at 45 μL/well. Test compound was added at 5 μL/well. BaF3 cells (parental and transfected) were incubated overnight, while MM1.S cells were incubated for 72 hours at 37° C., 5% CO2. CELL TITER GLO® Reagent (Promega) was added at 50 μL/well, the plates were incubated for 30 minutes, and their luminescence read on an HT Analyst. IC50/EC50 values for the test compound were calculated.
Text for PIM1: Determination of the Pim kinase activity of a Formula I compound is possible by a number of direct and indirect detection methods.

One may read the EC50 as the concentration at which the effect is half-maximal. For orientation: IC50 means the concentration that gives 50% inhibition. As for `CNC1CCN(c2c(NC(=O)c3nc(-c4c(F)cccc4F)sc3N)cnn2C)CC(F)(F)C1` (stereo not shown) [Example 409, 5-amino-N-[5-[3,3-difluoro-5-(methylamino)azepan-1-yl]-1-methyl-pyrazol-4-yl]-2-(2,6-difluorophenyl)thiazole-4-carboxamide], the EC50 in test [1] (72 hours) was 903 nM. Moreover, the IC50 in the test with BaF3 parental cells (setting [2]) came to 10800 nM.
Consider `Cn1ncc(NC(=O)c2nc(-c3c(F)cccc3F)sc2N)c1N1CC[C@@H](O)[C@@H](O)CC1` [Example 457, 5-amino-2-(2,6-difluorophenyl)-N-(5-((4R,5S)-4,5-dihydroxyazepan-1-yl)-1-methyl-1H-pyrazol-4-yl)thiazole-4-carboxamide], for which, in test [1] (Homo sapiens, MM1.S, 72 h), the EC50 turned out to be 4000 nM. The IC50 with BaF3 parental cells (setting [3]) was over 25000 nM.
For the compound `COC1CC(N)CCN(c2c(NC(=O)c3nc(-c4c(F)cccc4F)sc3N)cnn2C)C1` (stereo not shown) [Example 316, 5-amino-N-[5-(5-amino-3-methoxy-azepan-1-yl)-1-methyl-pyrazol-4-yl]-2-(2,6-difluorophenyl)thiazole-4-carboxamide], the EC50 in test [1] (72 hours) is 163 nM. The IC50 in the test with BaF3 parental cells (setting [2]) was over 25000 nM.
With `Cn1ncc(NC(=O)c2nc(-c3c(F)cccc3F)sc2N)c1N1CCCC2(CCCN2)CC1` (stereo not shown) [Example 351, 5-amino-N-[5-(1,9-diazaspiro[4.6]undecan-9-yl)-1-methyl-pyrazol-4-yl]-2-(2,6-difluorophenyl)thiazole-4-carboxamide], the EC50 in test [1] (Homo sapiens, MM1.S, 72 h) turned out to be 4900 nM. Moreover, in the test on BaF3 parental cells (setting [3]), the IC50 worked out at 5600 nM.
Usually Ki stands for a measure of affinity in units of concentration, obtained from inhibition or displacement. High values mean weaker binding, low ones tighter binding. For the compound `CCn1ncc(NC(=O)c2nc(-c3c(F)cccc3F)sc2N)c1N1CCC(N)C(F)CC1` (single isomer, unassigned) [Example 370, 5-amino-N-[5-(4-amino-5-fluoro-azepan-1-yl)-1-ethyl-pyrazol-4-yl]-2-(2,6-difluorophenyl)thiazole-4-carboxamide], in test [1] (Homo sapiens, MM1.S, 72 h), the EC50 amounted to 118 nM. Further, the Ki on PIM1 was 0.093 nM.
Take `CC1CC(N)CCN(c2c(NC(=O)c3nc(-c4c(F)cccc4F)sc3N)cnn2C)C1` (stereo not shown) [Example 453, 5-amino-N-[5-(5-amino-3-methyl-azepan-1-yl)-1-methyl-pyrazol-4-yl]-2-(2,6-difluorophenyl)thiazole-4-carboxamide]: in test [1] (Homo sapiens, MM1.S, 72 h), the EC50 was determined as 3200 nM. For the same compound, the IC50 in the test with BaF3 parental cells (setting [3]) is 14100 nM.
For `COC1CCN(c2c(NC(=O)c3nc(-c4c(F)cccc4F)sc3N)cnn2C)CCC1N` (stereo not shown) [Example 314, 5-amino-N-[5-(4-amino-5-methoxy-azepan-1-yl)-1-methyl-pyrazol-4-yl]-2-(2,6-difluorophenyl)thiazole-4-carboxamide], in test [1] (72 hours), the 50% effective concentration (EC50) was found to be 9000 nM. In the test with BaF3 parental cells (setting [3]), the IC50 is 13900 nM.
Take `CCn1ncc(NC(=O)c2nc(-c3c(F)cccc3F)sc2N)c1N1CCC(N)C(OC)CC1` (single isomer, unassigned) [Example 390, 5-amino-N-[5-(4-amino-5-methoxy-azepan-1-yl)-1-ethyl-pyrazol-4-yl]-2-(2,6-difluorophenyl)thiazole-4-carboxamide]: the EC50 in test [1] (72 hours) amounted to 147 nM. The compound also had a Ki at PIM1 of 0.192 nM.
For `Cn1ncc(NC(=O)c2nc(-c3c(F)cccc3F)sc2N)c1N1CCC(N)C(O)CC1` (single isomer, unassigned) [Example 337, 5-amino-N-[5-(4-amino-5-hydroxy-azepan-1-yl)-1-methyl-pyrazol-4-yl]-2-(2,6-difluorophenyl)thiazole-4-carboxamide], the EC50 in test [1] (72 hours) was 30.8 nM. Further, the IC50 in the test on BaF3 parental cells (setting [2]) amounted to 25000 nM.
`Cn1ncc(NC(=O)c2nc(-c3c(F)cccc3F)sc2N)c1N1CCNCC2(CC2)C1` [Example 313, 5-amino-N-[5-(5,8-diazaspiro[2.6]nonan-8-yl)-1-methyl-pyrazol-4-yl]-2-(2,6-difluorophenyl)thiazole-4-carboxamide]: the EC50 in test [1] (Homo sapiens, MM1.S, 72 h) worked out at 6400 nM. In addition, the IC50 in the test with BaF3 parental cells (setting [3]) turned out to be 17000 nM.
On to `CNCC1CCN(c2c(NC(=O)c3nc(-c4c(F)cccc4F)sc3N)cnn2C)CC1` [Example 101, 5-Amino-2-(2,6-difluorophenyl)-N-(1-methyl-5-(4-((methylamino)methyl)piperidin-1-yl)-1H-pyrazol-4-yl)thiazole-4-carboxamide], for which the EC50 in test [1] (Homo sapiens, MM1.S, 72 h) was 17900 nM. Moreover, the IC50 in the test on BaF3 parental cells (setting [4]) came out at 19500 nM.
As for `Nc1sc(-c2c(F)cccc2F)nc1C(=O)Nc1cnn(CC(F)F)c1N1CC[C@@H](O)[C@@H](N)CC1` [Example 375, 5-amino-N-(5-((4S,5R)-4-amino-5-hydroxyazepan-1-yl)-1-(2,2-difluoroethyl)-1H-pyrazol-4-yl)-2-(2,6-difluorophenyl)thiazole-4-carboxamide], in test [1] (Homo sapiens, MM1.S, 72 h), the EC50 was 70.6 nM. Moreover, at PIM1, the Ki was found to be 0.051 nM.
Consider `Cn1ncc(NC(=O)c2nc(-c3c(F)cccc3F)sc2N)c1C1CCC(N)CC(C)(O)C1` (single isomer, unassigned) [Example 467, 5-amino-N-[5-(5-amino-3-hydroxy-3-methyl-cycloheptyl)-1-methyl-pyrazol-4-yl]-2-(2,6-difluorophenyl)thiazole-4-carboxamide], for which, in test [1] (72 hours), the EC50 came to 4800 nM. Also, in the test with BaF3 parental cells (setting [2]), the IC50 is over 25000 nM.
Take `CO[C@@H]1[C@H](N)CCN(c2c(NC(=O)c3nc(-c4c(F)cccc4F)sc3N)cnn2C)CC12CC2` [Example 516, 5-amino-N-(5-((8R,9S)-8-amino-9-methoxy-5-azaspiro[2.6]nonan-5-yl)-1-methyl-1H-pyrazol-4-yl)-2-(2,6-difluorophenyl)thiazole-4-carboxamide]: in test [1] (Homo sapiens, MM1.S, 72 h), the EC50 stood at 5700 nM.
As for `Cn1ncc(NC(=O)c2nc(-c3c(F)cccc3F)sc2N)c1N1CCC[C@H](N)[C@@H](F)C1` (single isomer, unassigned) [Example 158], the EC50 in test [1] (Homo sapiens, MM1.S, 72 h) stood at 3000 nM. The IC50 in the test with BaF3 parental cells (setting [4]) amounted to 11600 nM.
Turning to `Cn1ncc(NC(=O)c2nc(-c3c(F)cccc3F)sc2N)c1N1CCCC(C)(N)CC1` (stereo not shown) [Example 435, 5-amino-N-[5-(4-amino-4-methyl-azepan-1-yl)-1-methyl-pyrazol-4-yl]-2-(2,6-difluorophenyl)thiazole-4-carboxamide], the EC50 in test [1] (Homo sapiens, MM1.S, 72 h) came out at 1800 nM. Also, the 50% inhibitory concentration (IC50) in the test with BaF3 parental cells (setting [3]) is 9800 nM.
Take `COC1CC(N)CCN(c2c(NC(=O)c3nc(-c4c(F)cccc4F)sc3N)cnn2C)C1` (stereo not shown) [Example 320, 5-amino-N-[5-(5-amino-3-methoxy-azepan-1-yl)-1-methyl-pyrazol-4-yl]-2-(2,6-difluorophenyl)thiazole-4-carboxamide]: the half-maximal effective concentration (EC50) in test [1] (72 hours) was 118 nM. Besides, the IC50 with BaF3 parental cells (setting [3]) turned out to be 25000 nM.
Take `CCn1ncc(NC(=O)c2nc(-c3ccccc3F)sc2N)c1N1CCC(N)C(OC)CC1` (stereo not shown) [Example 392, 5-amino-N-[5-(4-amino-5-methoxy-azepan-1-yl)-1-ethyl-pyrazol-4-yl]-2-(2-fluorophenyl)thiazole-4-carboxamide]: the EC50 in test [1] (Homo sapiens, MM1.S, 72 h) was determined as 202 nM. At PIM1, this compound gave a Ki of 0.668 nM.
In the same order, the values of `CO[C@H]1CCN(c2c(NC(=O)c3nc(-c4c(F)cccc4F)sc3N)cnn2C2CC2)CC[C@@H]1N` [Example 365, 5-amino-N-(5-((4S,5S)-4-amino-5-methoxyazepan-1-yl)-1-cyclopropyl-1H-pyrazol-4-yl)-2-(2,6-difluorophenyl)thiazole-4-carboxamide] are 606 nM and 0.219 nM.
The matching figures for `Cn1ncc(NC(=O)c2nc(-c3ncccc3F)sc2N)c1N1CC[C@@H](F)[C@@H](N)CC1` [Example 388, 5-amino-N-(5-((4S,5R)-4-amino-5-fluoroazepan-1-yl)-1-methyl-1H-pyrazol-4-yl)-2-(3-fluoropyridin-2-yl)thiazole-4-carboxamide]: 396 nM and 0.462 nM.
Regarding `CCOC1CCN(c2c(NC(=O)c3nc(-c4c(F)cccc4F)sc3N)cnn2C)CCC1N` (stereo not shown) [Example 385, 5-amino-N-[5-(4-amino-5-ethoxy-azepan-1-yl)-1-methyl-pyrazol-4-yl]-2-(2,6-difluorophenyl)thiazole-4-carboxamide], in test [1] (72 hours), the EC50 was 182 nM.
In the case of `Cn1ncc(NC(=O)c2nc(-c3c(F)cccc3F)sc2N)c1N1CC[C@@H](N)[C@H](F)CC1` [Example 139, 5-amino-N-(5-((4R,5R)-4-amino-5-fluoroazepan-1-yl)-1-methyl-1H-pyrazol-4-yl)-2-(2,6-difluorophenyl)thiazole-4-carboxamide], the EC50 in test [1] (Homo sapiens, MM1.S, 72 h) came to 68.4 nM.
On to `Nc1sc(-c2c(F)cccc2F)nc1C(=O)Nc1cnn(CC(F)F)c1N1CCC(N)C(O)CC1` (single isomer, unassigned) [Example 399, 5-amino-N-[5-(4-amino-5-hydroxy-azepan-1-yl)-1-(2,2-difluoroethyl)pyrazol-4-yl]-2-(2,6-difluorophenyl)thiazole-4-carboxamide], for which, in test [1] (72 hours), the EC50 stood at 41.9 nM. At PIM1, this compound came in with a Ki of 0.018 nM.
With `Cn1ncc(NC(=O)c2nc(-c3c(F)cccc3F)sc2N)c1N1CCC2NCCOC2CC1` (single isomer, unassigned) [Example 397, N-[5-(3,4,4a,5,6,8,9,9a-octahydro-2H-[1,4]oxazino[2,3-d]azepin-7-yl)-1-methyl-pyrazol-4-yl]-5-amino-2-(2,6-difluorophenyl)thiazole-4-carboxamide], the EC50 in test [1] (Homo sapiens, MM1.S, 72 h) was 6400 nM.
For the compound `Nc1sc(-c2c(F)cccc2F)nc1C(=O)Nc1cnn(CC(F)F)c1N1CCC(N)C(O)CC1` (single isomer, unassigned) [Example 398, 5-amino-N-[5-(4-amino-5-hydroxy-azepan-1-yl)-1-(2,2-difluoroethyl)pyrazol-4-yl]-2-(2,6-difluorophenyl)thiazole-4-carboxamide], the EC50 in test [1] (72 hours) came to 5700 nM. In addition, affinity on PIM1 was put at a Ki of 0.142 nM.
